≈ marks a conversion by molar mass, not a printed value. Calls of active or inactive are those of the source. The rule behind the calls is not given here.
Legend:
Staphylococcus aureus [1] = assay: Antibacterial activity against methicillin-resistant Staphylococcus aureus after 20 to 24 hrs; assay type: functional
Pseudomonas aeruginosa [2] = assay: Antibacterial activity against Pseudomonas aeruginosa ATCC 27853 after 20 to 24 hrs; assay type: functional
Enterococcus = assay: Antibacterial activity against vancomycin-resistant Enterococcus after 20 to 24 hrs; assay type: functional
Escherichia coli [3] = assay: Antibacterial activity against Escherichia coli ATCC 25922 after 20 to 24 hrs; assay type: functional
[4] = Selectivity ratio of MIC for methicillin-resistant Staphylococcus aureus to MIC for vancomycin-resistant Enterococcus; assay type: functional
Staphylococcus aureus [5] = assay: Ratio of MBC for methicillin-sensitive Staphylococcus aureus ATCC 25923 to MIC90 for methicillin-sensitive Staphylococcus aureus ATCC 25923; assay type: functional
Staphylococcus aureus [6] = assay: Antibacterial activity against methicillin-sensitive Staphylococcus aureus ATCC 29213 after 20 to 24 hrs; assay type: functional
Staphylococcus aureus [7] = assay: Bactericidal activity against […] Staphylococcus aureus clinical isolate USA300 assessed as log reduction in bacterial cell number at 2 times MIC after 24 hrs by time-kill curve analysis; assay type: functional, organism-based
Staphylococcus aureus [8] = assay: Ratio of MBC for methicillin-sensitive Staphylococcus aureus ATCC 49775 to MIC90 for methicillin-sensitive Staphylococcus aureus ATCC 49775; assay type: functional
Escherichia coli [9] = assay: Ratio of MIC90 for Escherichia coli ATCC 25922 to MIC90 for Escherichia coli ATCC 25922 in presence of polymyxin B nonapeptide; assay type: functional
Staphylococcus aureus [10] = assay: Ratio of MBC for methicillin-sensitive Staphylococcus aureus ATCC 29213 to MIC90 for methicillin-sensitive Staphylococcus aureus ATCC 29213; assay type: functional
Staphylococcus aureus [11] = assay: Antibacterial activity against methicillin-resistant Staphylococcus aureus clinical isolate after 20 to 24 hrs; assay type: functional
[12] = Selectivity index, ratio of GI50 for human HepG2 cells to MIC50 for methicillin-resistant Staphylococcus aureus clinical isolate; assay type: functional
Staphylococcus aureus [13] = assay: Bactericidal activity against Methicillin-sensitive Staphylococcus aureus ATCC 29213 assessed as log reduction in bacterial cell number at MIC after 8 hrs by time kill curve analysis
Staphylococcus aureus [14] = assay: Bactericidal activity against methicillin-sensitive Staphylococcus aureus ATCC 29213 after 24 and 48 hrs; assay type: functional
[15] = Cytotoxicity against human HepG2 cells after 24 hrs by WST-1 based colorimetric assay; assay type: cell-based
Staphylococcus aureus [16] = assay: Bactericidal activity against methicillin-sensitive Staphylococcus aureus ATCC 29213 assessed as log reduction in bacterial cell number at 2 times MIC after 8 hrs by time-kill curve analysis; assay type: functional
Staphylococcus aureus [17] = assay: Bactericidal activity against […] Staphylococcus aureus clinical isolate USA300 assessed as log reduction in bacterial cell number at 8 times MIC after 8 hrs by time-kill curve analysis; assay type: functional
Staphylococcus aureus [18] = assay: Antibacterial activity against methicillin-sensitive Staphylococcus aureus ATCC 49775 after 20 to 24 hrs in presence of 50% heat inactivated bovine serum; assay type: functional
Staphylococcus aureus [19] = assay: Bactericidal activity against methicillin-sensitive Staphylococcus aureus clinical isolate USA300 assessed as log reduction in bacterial cell number at MIC after 8 hrs by time-kill curve analysis; assay type: functional
Staphylococcus aureus [20] = assay: Antibacterial activity against methicillin-sensitive Staphylococcus aureus ATCC 29213 after 20 to 24 hrs in presence of 50% heat inactivated bovine serum
Staphylococcus aureus [21] = assay: Bactericidal activity against […] Staphylococcus aureus clinical isolate USA300 assessed as log reduction in bacterial cell number at MIC after 24 hrs by time-kill curve analysis; assay type: functional, organism-based
Staphylococcus aureus [22] = assay: Antibacterial activity against methicillin-sensitive Staphylococcus aureus ATCC 25923 after 20 to 24 hrs; assay type: functional
Staphylococcus aureus [23] = assay: Antibacterial activity against methicillin-sensitive Staphylococcus aureus ATCC 29213 after 20 to 24 hrs in presence of 50% heat inactivated bovine serum; assay type: functional
Staphylococcus aureus [24] = assay: Bactericidal activity against methicillin-sensitive Staphylococcus aureus ATCC 29213 assessed as log reduction in bacterial cell number at 8 times MIC after 8 hrs by time-kill curve analysis; assay type: functional
[25] = Selectivity index, ratio of GI50 for human HepG2 cells to MIC50 for methicillin-sensitive Staphylococcus aureus clinical isolate; assay type: functional
Staphylococcus aureus [26] = assay: Bactericidal activity against […] Staphylococcus aureus clinical isolate USA300 assessed as log reduction in bacterial cell number at 4 times MIC after 8 hrs by time-kill curve analysis; assay type: functional
Staphylococcus aureus [27] = assay: Bactericidal activity against methicillin-sensitive Staphylococcus aureus ATCC 25923 after 24 and 48 hrs; assay type: functional
Staphylococcus aureus [28] = assay: Bactericidal activity against Methicillin-sensitive Staphylococcus aureus ATCC 29213 assessed as log reduction in bacterial cell number at 2 times MIC after 24 hrs by time kill curve analysis; assay type: functional, organism-based
Pseudomonas aeruginosa [29] = assay: Ratio of MIC90 for Pseudomonas aeruginosa ATCC 27853 to MIC90 for Pseudomonas aeruginosa ATCC 27853 in presence of polymyxin B nonapeptide; assay type: functional
Staphylococcus aureus [30] = assay: Bactericidal activity against Methicillin-sensitive Staphylococcus aureus ATCC 29213 assessed as log reduction in bacterial cell number at 8 times MIC after 24 hrs by time-kill curve analysis; assay type: functional, organism-based
Staphylococcus aureus [31] = assay: Bactericidal activity against methicillin-resistant Staphylococcus aureus clinical isolate after 24 and 48 hrs; assay type: functional
Staphylococcus aureus [32] = assay: Antibacterial activity against methicillin-sensitive Staphylococcus aureus ATCC 29213 after 20 to 24 hrs in presence of 50% heat inactivated bovine serum; remark: listed apart in the source
[33] = Toxicity in sheep erythrocytes assessed as hemolysis at 600 uM after 30 mins; assay type: cell-based, Ovis aries; settings: erythrocyte, 0.5 h
Staphylococcus aureus [34] = assay: Antibacterial activity against methicillin-sensitive Staphylococcus aureus ATCC 49775 after 20 to 24 hrs; assay type: functional
Staphylococcus aureus [35] = assay: Bactericidal activity against […] Staphylococcus aureus clinical isolate USA300 assessed as log reduction in bacterial cell number at 8 times MIC after 24 hrs by time-kill curve analysis; assay type: functional, organism-based
Staphylococcus aureus [36] = assay: Antibacterial activity against methicillin-sensitive Staphylococcus aureus ATCC 6538 after 20 to 24 hrs in presence of 50% heat inactivated bovine serum; assay type: functional
Staphylococcus aureus [37] = assay: Bactericidal activity against methicillin-sensitive Staphylococcus aureus ATCC 29213 assessed as log reduction in bacterial cell number at 4 times MIC after 8 hrs by time-kill curve analysis; assay type: functional
Staphylococcus aureus [38] = assay: Bactericidal activity against Methicillin-sensitive Staphylococcus aureus ATCC 29213 assessed as log reduction in bacterial cell number at 4 times MIC after 24 hrs by time kill curve analysis; assay type: functional, organism-based
[39] = Selectivity index, ratio of GI50 for human HEL299 cells to MIC50 for methicillin-sensitive Staphylococcus aureus clinical isolate; assay type: functional, HEL 299
Staphylococcus aureus [40] = assay: Bactericidal activity against […] Staphylococcus aureus clinical isolate USA300 assessed as log reduction in bacterial cell number at 2 times MIC after 8 hrs by time-kill curve analysis; assay type: functional
Pseudomonas aeruginosa [41] = assay: Antibacterial activity against Pseudomonas aeruginosa ATCC 27853 after 20 to 24 hrs in presence of polymyxin B nonapeptide; assay type: functional
Staphylococcus aureus [42] = assay: Bactericidal activity against methicillin-sensitive Staphylococcus aureus ATCC 49775 after 24 and 48 hrs; assay type: functional
[43] = Cytotoxicity against human HEL299 cells after 24 hrs by WST-1 based colorimetric assay; assay type: cell-based, HEL 299
Staphylococcus aureus [44] = assay: Bactericidal activity against methicillin-sensitive Staphylococcus aureus ATCC 6538 after 24 and 48 hrs; assay type: functional
[45] = Selectivity index, ratio of GI50 for human HEL299 cells to MIC50 for methicillin-resistant Staphylococcus aureus clinical isolate; assay type: functional, HEL 299
Escherichia coli [46] = assay: Antibacterial activity against Escherichia coli ATCC 25922 after 20 to 24 hrs in presence of polymyxin B nonapeptide; assay type: functional
Staphylococcus aureus [47] = assay: Antibacterial activity against Staphylococcus aureus ATCC 29213 after 20 to 24 hrs in presence of 2% heat inactivated bovine serum; assay type: functional
Staphylococcus aureus [48] = assay: Bactericidal activity against […] Staphylococcus aureus clinical isolate USA300 assessed as log reduction in bacterial cell number at 4 times MIC after 24 hrs by time-kill curve analysis; assay type: functional, organism-based
Staphylococcus aureus [49] = assay: Bactericidal activity against methicillin-sensitive Staphylococcus aureus ATCC 29213 assessed as log reduction in bacterial cell number at MIC after 8 hrs by time-kill curve analysis; assay type: functional
Staphylococcus aureus [50] = assay: Antibacterial activity against methicillin-sensitive Staphylococcus aureus ATCC 6538 after 20 to 24 hrs; assay type: functional
Staphylococcus aureus [51] = assay: Ratio of MBC for methicillin-sensitive Staphylococcus aureus ATCC 6538 to MIC90 for methicillin-sensitive Staphylococcus aureus ATCC 6538; assay type: functional
[52] = Half life of compound in human liver microsomes; assay type: ADME
[53] = Lipophilicity, logD of the compound at pH 3; assay type: physicochemical; settings: buffer
[54] = Metabolic stability in human liver microsomes assessed as compound loss after 60 mins; assay type: ADME; settings: read-out: Drug degradation
[55] = Intrinsic clearance in mouse liver microsomes assessed per mg of protein; assay type: ADME; settings: read-out: CLH
[56] = Intrinsic clearance in human liver microsomes assessed per mg of protein; assay type: ADME; settings: read-out: CLH
[57] = Half life of compound in mouse liver microsomes; assay type: ADME
[58] = Lipophilicity, logD of the compound at pH 7.4; assay type: physicochemical; settings: buffer
[59] = Solubility of the compound at pH 2; assay type: physicochemical; settings: buffer
[60] = Solubility of the compound at pH 6.5; assay type: physicochemical; settings: buffer

## N=C(N/N=C/c1cccc(Br)c1)N/N=C/c1cccc(Br)c1
Staphylococcus aureus [1]
  MIC: > 400 µM
Pseudomonas aeruginosa [2]
  MIC: > 400 µM
Enterococcus
  MIC: 15.4 µM (≈ 6.52 µg/mL)
Escherichia coli [3]
  MIC: > 400 µM
[4]
  Selectivity ratio: 10

## C/C(=N\NC(=N)N/N=C(\C)c1ccc(Cl)cc1)c1ccc(Cl)cc1
Staphylococcus aureus [5]
  Ratio: 1
Staphylococcus aureus [6]
  MIC90: 1.3 µM (≈ 0.471 µg/mL)
Staphylococcus aureus [7]
  Activity: inactive
Staphylococcus aureus [8]
  Ratio: 1
Escherichia coli [9]
  Ratio: 10
Staphylococcus aureus [10]
  Ratio: 1
Staphylococcus aureus [11]
  MIC90: 1.3 µM (≈ 0.471 µg/mL)
[12]
  Selectivity Index: 2
Staphylococcus aureus [13]
  Activity: inactive
Staphylococcus aureus [14]
  MBC: 2.5 µM (≈ 0.906 µg/mL)
[15]
  GI50 at 24 h: 13.8 µM
Staphylococcus aureus [16]
  Activity: >=4 log10CFU/ml
Staphylococcus aureus [17]
  Activity: >=4 log10CFU/ml
Staphylococcus aureus [18]
  MIC90: > 250 µM
Staphylococcus aureus [19]
  Activity: >=4 log10CFU/ml
Staphylococcus aureus [20]
  MIC90: > 250 µM
Staphylococcus aureus [21]
  Activity: inactive
Staphylococcus aureus [22]
  MIC90: 1.3 µM (≈ 0.471 µg/mL)
Staphylococcus aureus [23]
  MIC90: > 250 µM
Staphylococcus aureus [24]
  Activity: >=4 log10CFU/ml
[25]
  Selectivity Index: 2
Staphylococcus aureus [26]
  Activity: >=4 log10CFU/ml
Staphylococcus aureus [1]
  MIC: 7.5 µM (≈ 2.72 µg/mL)
Pseudomonas aeruginosa [2]
  MIC90: > 250 µM
Staphylococcus aureus [27]
  MBC: 2.5 µM (≈ 0.906 µg/mL)
Staphylococcus aureus [28]
  Activity: inactive
Pseudomonas aeruginosa [29]
  Ratio: 10
Staphylococcus aureus [30]
  Activity: inactive
Staphylococcus aureus [31]
  MBC: 2.5 µM (≈ 0.906 µg/mL)
Staphylococcus aureus [32]
  MIC90: > 250 µM
[33]
  Activity: Non-toxic
Staphylococcus aureus [34]
  MIC90: 1.3 µM (≈ 0.471 µg/mL)
Staphylococcus aureus [35]
  Activity: inactive
Staphylococcus aureus [36]
  MIC90: > 250 µM
Enterococcus
  MIC: 3.8 µM (≈ 1.38 µg/mL)
Staphylococcus aureus [37]
  Activity: >=4 log10CFU/ml
Staphylococcus aureus [38]
  Activity: inactive
[39]
  Selectivity Index: 2
Escherichia coli [3]
  MIC90: > 250 µM
Staphylococcus aureus [40]
  Activity: >=4 log10CFU/ml
Pseudomonas aeruginosa [41]
  MIC90: 5 µM
Staphylococcus aureus [42]
  MBC: 2.5 µM (≈ 0.906 µg/mL)
[43]
  GI50 at 24 h: 6.7 µM
Staphylococcus aureus [44]
  MBC: 2.5 µM (≈ 0.906 µg/mL)
[45]
  Selectivity Index: 2
Escherichia coli [46]
  MIC90: 10 µM
Staphylococcus aureus [47]
  MIC90: 10 µM
Staphylococcus aureus [48]
  Activity: inactive
Staphylococcus aureus [49]
  Activity: >=4 log10CFU/ml
Staphylococcus aureus [50]
  MIC90: 1.3 µM (≈ 0.471 µg/mL)
Staphylococcus aureus [51]
  Ratio: 1

## N=C(N/N=C(\CO)c1ccc(Cl)cc1)N/N=C(\CO)c1ccc(Cl)cc1
[52]
  half-life: > 4.12 h
[53]
  logD: 3.2
Staphylococcus aureus [1]
  MIC: 20.3 µM (≈ 8 µg/mL)
[54]
  metabolised at 1 h: < 15%
[55]
  microsomal CLint: 13 µL/min/mg
[56]
  microsomal CLint: < 7 µL/min/mg
[57]
  half-life: 2.18 h
Enterococcus
  MIC: 15.2 µM (≈ 5.99 µg/mL)
[58]
  logD: 4
Escherichia coli [3]
  Activity: inactive
[59]
  solubility: 25 µg/mL (≈ 63.4 µM)
[60]
  solubility: < 1.6 µg/mL

Source: ChEMBL document CHEMBL3779887, “Robenidine Analogues as Gram-Positive Antibacterial Agents” (J Med Chem, 2016)
